One test deals with Ephrin type-A receptor 2 (Homo sapiens, UniProt P29317). The test is described as follows: Inhibition of recombinant human N-terminal His6-tagged EphA2 (N598 to R890 residues) expressed in baculovirus using poly-EY as substrate after 180 mins by luciferase coupled chemiluminescence assay.
Test [1] addresses Vascular endothelial growth factor receptor 1 (Homo sapiens, UniProt P17948). Put plainly: Inhibition of recombinant human N-terminal GST-tagged factor 10a cleavage site-fused Flt1 (K784 to I1338 residues) expressed in baculovirus infected insect Sf9 cells using poly-EY as substrate after 120 mins in presence of gamma33P-ATP by liquid scintillation spectrometry.
The next test has as its target T1, Ephrin type-B receptor 4 (Homo sapiens, UniProt P54760).
T1 sequence (P54760 whole entry): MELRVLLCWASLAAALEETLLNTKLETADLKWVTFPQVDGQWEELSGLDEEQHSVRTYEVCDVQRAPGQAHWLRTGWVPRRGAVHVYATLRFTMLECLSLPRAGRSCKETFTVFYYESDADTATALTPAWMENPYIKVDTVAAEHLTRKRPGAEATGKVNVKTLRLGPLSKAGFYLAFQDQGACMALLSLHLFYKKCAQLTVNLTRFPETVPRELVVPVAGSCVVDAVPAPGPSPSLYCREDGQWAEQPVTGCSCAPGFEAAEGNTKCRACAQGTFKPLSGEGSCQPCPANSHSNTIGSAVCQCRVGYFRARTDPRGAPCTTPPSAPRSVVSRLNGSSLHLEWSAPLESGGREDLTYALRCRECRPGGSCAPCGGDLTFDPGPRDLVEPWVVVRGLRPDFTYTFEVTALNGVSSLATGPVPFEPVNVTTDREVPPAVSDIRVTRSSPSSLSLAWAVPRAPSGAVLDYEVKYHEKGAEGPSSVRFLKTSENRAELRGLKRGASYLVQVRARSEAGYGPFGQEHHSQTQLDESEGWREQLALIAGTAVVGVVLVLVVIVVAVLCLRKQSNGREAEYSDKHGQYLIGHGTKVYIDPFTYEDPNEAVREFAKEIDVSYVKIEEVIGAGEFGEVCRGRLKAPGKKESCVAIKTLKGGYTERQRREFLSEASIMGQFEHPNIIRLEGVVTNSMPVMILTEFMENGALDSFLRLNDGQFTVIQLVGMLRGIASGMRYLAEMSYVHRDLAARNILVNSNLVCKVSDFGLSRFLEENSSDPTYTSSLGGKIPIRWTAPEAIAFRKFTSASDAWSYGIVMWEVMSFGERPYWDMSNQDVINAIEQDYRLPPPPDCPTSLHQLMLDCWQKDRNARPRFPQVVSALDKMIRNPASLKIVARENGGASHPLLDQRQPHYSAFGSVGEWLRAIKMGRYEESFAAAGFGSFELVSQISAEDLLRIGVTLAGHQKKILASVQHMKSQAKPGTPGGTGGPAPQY
The test is described as follows: Inhibition of recombinant human N-terminal His6-tagged EphB4 kinase domain (E605 to E890 residues) expressed in baculovirus using poly-AEKY as substrate after 150 mins in presence of gamma33P-ATP by liquid scintillation spectrometry.

Test [2] concerns the target Vascular endothelial growth factor receptor 2 (Homo sapiens, UniProt P35968). Put plainly: Inhibition of recombinant human N-terminal GST-fused KDR (D807 to V1356 residues) expressed in baculovirus infected […] insect Sf9 cells using poly-EY as substrate after 240 mins by luciferase coupled chemiluminescence assay.
In test [3] the target is Receptor tyrosine-protein kinase erbB-2 (Homo sapiens, UniProt P04626). The test is described as follows: Inhibition of recombinant human N-terminal GST His6-tagged thrombin cleavage site-fused ErbB2 kinase domain (Q679 to V1255 residues) expressed in baculovirus infected insect Sf9 cells using biotinylated poly-EY as substrate after 60 mins by alphascreen assay. (In general: Bead proximity is the source of the signal in Alpha formats.)
Chain of Receptor tyrosine-protein kinase erbB-2 (P04626 whole entry, the tested form may be a part): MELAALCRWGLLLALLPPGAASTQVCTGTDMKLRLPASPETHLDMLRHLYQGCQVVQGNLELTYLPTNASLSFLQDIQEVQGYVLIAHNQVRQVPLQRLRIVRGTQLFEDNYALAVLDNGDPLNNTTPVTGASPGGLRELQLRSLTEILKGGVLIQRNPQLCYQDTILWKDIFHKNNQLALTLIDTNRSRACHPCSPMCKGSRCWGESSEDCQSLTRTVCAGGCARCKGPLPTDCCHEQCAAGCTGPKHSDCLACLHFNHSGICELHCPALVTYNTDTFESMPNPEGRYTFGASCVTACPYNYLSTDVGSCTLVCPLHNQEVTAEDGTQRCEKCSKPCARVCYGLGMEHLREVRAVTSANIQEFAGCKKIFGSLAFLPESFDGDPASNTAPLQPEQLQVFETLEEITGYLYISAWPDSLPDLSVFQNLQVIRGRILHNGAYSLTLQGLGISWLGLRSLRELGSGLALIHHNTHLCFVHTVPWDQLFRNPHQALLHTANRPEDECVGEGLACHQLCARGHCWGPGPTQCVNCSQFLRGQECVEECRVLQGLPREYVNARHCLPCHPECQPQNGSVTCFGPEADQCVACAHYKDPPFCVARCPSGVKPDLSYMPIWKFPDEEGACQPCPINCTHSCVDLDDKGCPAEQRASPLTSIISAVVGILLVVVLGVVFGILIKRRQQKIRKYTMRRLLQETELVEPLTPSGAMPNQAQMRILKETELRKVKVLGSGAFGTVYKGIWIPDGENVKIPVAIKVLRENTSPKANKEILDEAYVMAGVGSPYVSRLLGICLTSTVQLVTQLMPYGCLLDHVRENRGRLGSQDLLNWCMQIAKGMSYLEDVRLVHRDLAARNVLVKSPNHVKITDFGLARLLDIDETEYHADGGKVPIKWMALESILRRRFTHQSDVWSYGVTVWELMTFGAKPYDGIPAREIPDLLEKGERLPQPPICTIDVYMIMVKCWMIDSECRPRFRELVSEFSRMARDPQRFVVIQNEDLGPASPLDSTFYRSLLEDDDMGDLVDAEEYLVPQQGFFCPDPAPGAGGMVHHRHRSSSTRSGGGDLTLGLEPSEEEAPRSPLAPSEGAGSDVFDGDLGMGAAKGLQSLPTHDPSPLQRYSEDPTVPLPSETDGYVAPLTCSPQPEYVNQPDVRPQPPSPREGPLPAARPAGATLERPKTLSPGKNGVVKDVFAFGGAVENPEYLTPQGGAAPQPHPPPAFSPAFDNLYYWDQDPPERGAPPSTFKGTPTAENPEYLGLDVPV

Chain of Ephrin type-A receptor 2 (P29317 whole entry, the tested form may be a part): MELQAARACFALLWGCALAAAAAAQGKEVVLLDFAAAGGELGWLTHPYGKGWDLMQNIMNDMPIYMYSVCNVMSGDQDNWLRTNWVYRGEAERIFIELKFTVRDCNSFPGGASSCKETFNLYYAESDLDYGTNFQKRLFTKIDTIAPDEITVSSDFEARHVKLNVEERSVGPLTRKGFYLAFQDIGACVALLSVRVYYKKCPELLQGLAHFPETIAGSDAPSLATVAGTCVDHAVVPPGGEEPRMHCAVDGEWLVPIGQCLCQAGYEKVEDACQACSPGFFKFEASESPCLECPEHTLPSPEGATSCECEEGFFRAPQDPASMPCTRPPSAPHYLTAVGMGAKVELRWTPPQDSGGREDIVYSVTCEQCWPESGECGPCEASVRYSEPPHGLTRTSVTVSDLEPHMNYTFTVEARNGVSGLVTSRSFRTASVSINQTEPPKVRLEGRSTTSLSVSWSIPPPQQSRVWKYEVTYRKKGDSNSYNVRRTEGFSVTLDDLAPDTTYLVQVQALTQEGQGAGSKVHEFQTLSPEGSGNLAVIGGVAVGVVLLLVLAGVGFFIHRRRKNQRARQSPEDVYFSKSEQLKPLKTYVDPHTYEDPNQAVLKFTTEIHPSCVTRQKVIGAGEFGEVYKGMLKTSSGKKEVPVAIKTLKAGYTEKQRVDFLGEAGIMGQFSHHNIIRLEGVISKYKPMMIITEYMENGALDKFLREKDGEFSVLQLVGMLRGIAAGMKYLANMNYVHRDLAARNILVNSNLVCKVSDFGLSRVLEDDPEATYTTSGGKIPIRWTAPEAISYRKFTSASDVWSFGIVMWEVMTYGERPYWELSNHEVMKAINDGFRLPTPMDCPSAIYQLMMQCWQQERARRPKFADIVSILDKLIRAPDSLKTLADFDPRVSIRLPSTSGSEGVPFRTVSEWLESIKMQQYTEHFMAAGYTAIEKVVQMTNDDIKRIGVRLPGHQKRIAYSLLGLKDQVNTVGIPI
Chain of Vascular endothelial growth factor receptor 2 (P35968 whole entry, the tested form may be a part): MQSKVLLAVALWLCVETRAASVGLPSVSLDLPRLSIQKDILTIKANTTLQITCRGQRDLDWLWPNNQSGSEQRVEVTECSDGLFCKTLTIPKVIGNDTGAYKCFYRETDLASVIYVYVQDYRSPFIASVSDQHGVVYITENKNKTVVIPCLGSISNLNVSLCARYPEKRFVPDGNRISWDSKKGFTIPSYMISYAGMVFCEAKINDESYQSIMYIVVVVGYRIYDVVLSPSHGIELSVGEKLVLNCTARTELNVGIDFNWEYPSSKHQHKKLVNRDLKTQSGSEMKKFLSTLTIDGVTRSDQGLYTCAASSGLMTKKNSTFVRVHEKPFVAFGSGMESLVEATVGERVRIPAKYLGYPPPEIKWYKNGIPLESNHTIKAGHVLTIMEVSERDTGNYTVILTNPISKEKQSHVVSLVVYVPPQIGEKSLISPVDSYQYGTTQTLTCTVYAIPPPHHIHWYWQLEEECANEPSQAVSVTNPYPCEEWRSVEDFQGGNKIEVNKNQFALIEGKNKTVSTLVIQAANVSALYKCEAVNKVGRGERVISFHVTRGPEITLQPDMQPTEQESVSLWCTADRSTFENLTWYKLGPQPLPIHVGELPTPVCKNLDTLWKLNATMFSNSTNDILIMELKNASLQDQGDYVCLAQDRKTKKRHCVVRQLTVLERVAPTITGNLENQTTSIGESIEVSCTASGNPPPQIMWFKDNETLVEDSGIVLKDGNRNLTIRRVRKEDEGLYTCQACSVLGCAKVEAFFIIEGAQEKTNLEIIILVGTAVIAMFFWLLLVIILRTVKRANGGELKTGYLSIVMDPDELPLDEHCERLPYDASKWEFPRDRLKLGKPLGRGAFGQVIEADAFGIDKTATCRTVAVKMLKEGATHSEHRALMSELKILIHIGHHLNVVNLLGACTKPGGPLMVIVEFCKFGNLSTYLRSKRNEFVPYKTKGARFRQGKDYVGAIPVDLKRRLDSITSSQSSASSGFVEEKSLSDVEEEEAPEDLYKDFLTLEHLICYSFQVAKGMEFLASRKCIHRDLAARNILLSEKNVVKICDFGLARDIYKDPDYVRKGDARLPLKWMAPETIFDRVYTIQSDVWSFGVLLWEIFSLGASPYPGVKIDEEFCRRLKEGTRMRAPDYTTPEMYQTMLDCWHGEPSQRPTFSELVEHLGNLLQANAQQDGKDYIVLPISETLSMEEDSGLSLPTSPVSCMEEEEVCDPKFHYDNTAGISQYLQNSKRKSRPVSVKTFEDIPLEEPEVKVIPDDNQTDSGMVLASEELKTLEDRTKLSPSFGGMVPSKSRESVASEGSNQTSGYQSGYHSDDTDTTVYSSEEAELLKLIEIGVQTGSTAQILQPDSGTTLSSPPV
Chain of Vascular endothelial growth factor receptor 1 (P17948 whole entry, the tested form may be a part): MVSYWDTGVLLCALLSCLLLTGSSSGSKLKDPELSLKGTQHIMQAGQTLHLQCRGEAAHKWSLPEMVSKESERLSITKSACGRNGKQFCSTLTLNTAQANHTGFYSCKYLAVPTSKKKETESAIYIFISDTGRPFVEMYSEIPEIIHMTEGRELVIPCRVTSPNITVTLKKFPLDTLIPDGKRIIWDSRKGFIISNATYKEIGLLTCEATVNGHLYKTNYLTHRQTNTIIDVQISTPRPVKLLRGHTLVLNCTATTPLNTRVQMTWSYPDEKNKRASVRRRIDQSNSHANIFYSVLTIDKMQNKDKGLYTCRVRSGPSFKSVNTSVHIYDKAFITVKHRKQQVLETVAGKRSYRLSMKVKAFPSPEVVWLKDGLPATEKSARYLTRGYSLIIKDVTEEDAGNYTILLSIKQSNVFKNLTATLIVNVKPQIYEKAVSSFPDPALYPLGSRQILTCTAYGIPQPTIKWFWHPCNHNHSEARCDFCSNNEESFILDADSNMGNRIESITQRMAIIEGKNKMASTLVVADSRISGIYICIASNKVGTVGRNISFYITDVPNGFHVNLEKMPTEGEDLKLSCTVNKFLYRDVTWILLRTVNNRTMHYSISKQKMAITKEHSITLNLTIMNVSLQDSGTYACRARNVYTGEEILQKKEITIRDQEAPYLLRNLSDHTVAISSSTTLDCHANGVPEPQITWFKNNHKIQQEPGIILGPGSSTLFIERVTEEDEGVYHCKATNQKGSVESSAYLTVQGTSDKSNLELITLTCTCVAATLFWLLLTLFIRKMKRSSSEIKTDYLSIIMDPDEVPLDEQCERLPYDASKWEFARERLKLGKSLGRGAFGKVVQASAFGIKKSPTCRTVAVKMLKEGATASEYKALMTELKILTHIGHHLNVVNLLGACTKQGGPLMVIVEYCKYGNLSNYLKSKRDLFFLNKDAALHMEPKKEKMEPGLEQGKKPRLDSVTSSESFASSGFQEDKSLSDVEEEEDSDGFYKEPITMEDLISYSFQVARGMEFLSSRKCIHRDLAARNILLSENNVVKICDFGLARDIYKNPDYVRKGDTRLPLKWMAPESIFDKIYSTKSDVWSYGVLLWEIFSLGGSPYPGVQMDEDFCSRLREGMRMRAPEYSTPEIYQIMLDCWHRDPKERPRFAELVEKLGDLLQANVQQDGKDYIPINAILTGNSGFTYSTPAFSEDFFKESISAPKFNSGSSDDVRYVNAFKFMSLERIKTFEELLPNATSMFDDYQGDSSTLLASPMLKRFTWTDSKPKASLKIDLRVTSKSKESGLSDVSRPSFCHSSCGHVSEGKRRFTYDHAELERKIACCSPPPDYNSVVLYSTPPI

A word on the IC50: it is the midpoint of a concentration-inhibition curve. For `COc1cc2c(Nc3ccc(Cl)c(Cl)c3F)ncnc2cc1OC[C@@H]1CN2CCOC[C@H]2CO1`, the IC50 (on Ephrin type-A receptor 2; in test [1]; at Ephrin type-B receptor 4; in test [2]; in test [3]) was below 50 nM throughout.

As for `COc1cc2c(Nc3cc(Cl)c(Cl)cc3F)ncnc2cc1OC[C@@H]1CN2CCC[C@H]2CO1`, the IC50 at Ephrin type-A receptor 2 was below 50 nM; in test [1], 50 to 1000 nM; at Ephrin type-B receptor 4, below 50 nM; in test [2] it was below 50 nM; in test [3], 50 to 1000 nM.

Regarding `COc1cc2c(Nc3ccc(Br)c(Cl)c3Cl)ncnc2cc1OC[C@@H]1CN2CCOC[C@H]2CO1`, the IC50 at Ephrin type-A receptor 2 is 50 to 1000 nM; in test [1], 50 to 1000 nM; at Ephrin type-B receptor 4 it was below 50 nM; in test [2], 50 to 1000 nM; in test [3], 1000 to 20000 nM.

As for `COc1cc2c(Nc3cc(Cl)c(Cl)cc3F)ncnc2cc1OC[C@@H]1CN2CCOC[C@H]2CO1`, the IC50 on Ephrin type-A receptor 2 was 50 to 1000 nM; in test [1], 50 to 1000 nM; at Ephrin type-B receptor 4, below 50 nM; in test [2], 50 to 1000 nM; in test [3], 50 to 1000 nM.

For `COc1cc2c(Nc3ccc(Br)c(Cl)c3F)ncnc2cc1OC[C@H]1CN2CCOC[C@H]2CO1`, the IC50 on Ephrin type-A receptor 2 was 50 to 1000 nM; in test [1] it was 50 to 1000 nM; on Ephrin type-B receptor 4 it was 50 to 1000 nM; in test [2] it was below 50 nM; in test [3] it was 50 to 1000 nM.

`COc1cc2c(Nc3ccc(Cl)c(Cl)c3)ncnc2cc1OC[C@H]1CN2CCC[C@@H]2CO1`: the IC50 on Ephrin type-A receptor 2 is 50 to 1000 nM; in test [1], 50 to 1000 nM; on Ephrin type-B receptor 4 it was below 50 nM; in test [2], below 50 nM; in test [3], 50 to 1000 nM.

In the case of `COc1cc2c(Nc3ccc(Cl)c(Cl)c3)ncnc2cc1OCC1CN2CSC[C@H]2CO1` (stereo partly specified), the IC50 (at Ephrin type-A receptor 2; in test [1]; in test [2]) was 50 to 1000 nM each time.

Take `COc1cc2c(Nc3ccc(F)c(Cl)c3F)ncnc2cc1OC[C@@H]1CN2CCC[C@H]2CO1`: the IC50 at Ephrin type-A receptor 2 was below 50 nM; in test [1], 50 to 1000 nM; on Ephrin type-B receptor 4, below 50 nM; in test [2], 50 to 1000 nM; in test [3], 50 to 1000 nM.

In the case of `COc1cc2c(Nc3cc(Cl)c(Br)cc3F)ncnc2cc1OC[C@@H]1CN2CCOC[C@H]2CO1`, the concentration for half-maximal inhibition (IC50) was 50 to 1000 nM at Ephrin type-A receptor 2; 50 to 1000 nM in test [1]; below 50 nM on Ephrin type-B receptor 4; 50 to 1000 nM in test [2]; 50 to 1000 nM in test [3].

For the compound `COc1cc2c(Nc3ccc(Br)c(Cl)c3Cl)ncnc2cc1OC[C@@H]1CN2CCC[C@H]2CO1`, the IC50 on Ephrin type-A receptor 2 was below 50 nM; in test [1], 50 to 1000 nM; at Ephrin type-B receptor 4 it was below 50 nM; in test [2] it was below 50 nM; in test [3], 50 to 1000 nM.

For `COc1cc2c(Nc3ccc(Br)c(Cl)c3F)ncnc2cc1OC[C@@H]1CN2CCOC[C@H]2CO1`, the IC50 (on Ephrin type-A receptor 2; in test [1]; on Ephrin type-B receptor 4; in test [2]; in test [3]) was below 50 nM in each case.

Take `COc1cc2c(Nc3ccc(Cl)c(Cl)c3)ncnc2cc1OC[C@@H]1CN2CCC[C@H]2CO1`: the IC50 at Ephrin type-A receptor 2 is below 50 nM; in test [1] it was 50 to 1000 nM; at Ephrin type-B receptor 4, below 50 nM; in test [2], below 50 nM; in test [3], 50 to 1000 nM.

As to `COc1cc2c(Nc3ccc(Cl)c(Cl)c3)ncnc2cc1OC[C@H]1CN2CCC[C@H]2CO1`, the IC50 on Ephrin type-A receptor 2 is below 50 nM; in test [1], 50 to 1000 nM; on Ephrin type-B receptor 4 it was below 50 nM; in test [2], below 50 nM; in test [3] it was below 50 nM.

In the case of `COc1cc2c(Nc3ccc(Br)c(Cl)c3Cl)ncnc2cc1OC[C@@H]1CO[C@H]2[C@@H]1OC[C@@H]2OC`, the IC50 in test [1] and in test [3] was 1000 to 20000 nM in each case.

For the compound `COc1cc2c(Nc3ccc(Cl)c(Cl)c3)ncnc2cc1OCC1CN2CCOCC2CO1` (stereo unspecified), the IC50 on Ephrin type-A receptor 2 was 50 to 1000 nM; in test [1], 50 to 1000 nM; at Ephrin type-B receptor 4 it was below 50 nM; in test [2], below 50 nM; in test [3], below 50 nM.

On to `COc1cc2c(Nc3ccc(Cl)c(Cl)c3F)ncnc2cc1OC[C@@H]1CN2CCC[C@@H]2C(=O)N1`, for which the results for the IC50 (at Ephrin type-A receptor 2; in test [1]; in test [2]) were below 50 nM, 50 to 1000 nM and below 50 nM, respectively.

On to `COc1cc2c(Nc3ccc(F)c(Cl)c3F)ncnc2cc1OC[C@@H]1CN2CCOC[C@H]2CO1`, for which the IC50 was 50 to 1000 nM on Ephrin type-A receptor 2; 50 to 1000 nM in test [1]; below 50 nM at Ephrin type-B receptor 4; 50 to 1000 nM in test [2]; 50 to 1000 nM in test [3].

In the case of `COc1cc2c(Nc3ccc(Cl)c(Cl)c3F)ncnc2cc1OC[C@@H]1CN2CCC[C@H]2C(=O)N1`, the IC50 on Ephrin type-A receptor 2 is 50 to 1000 nM; in test [1], 50 to 1000 nM; in test [2], below 50 nM.

Regarding `COc1cc2c(Nc3ccc(F)c(Cl)c3F)ncnc2cc1OC[C@H]1CN2CCOC[C@H]2CO1`, the IC50 (at Ephrin type-A receptor 2; in test [1]; at Ephrin type-B receptor 4; in test [2]; in test [3]) was 50 to 1000 nM in each case.

Take `COc1cc2c(Nc3cc(Cl)c(Br)cc3F)ncnc2cc1OC[C@H]1CN2CCOC[C@H]2CO1`: the IC50 (on Ephrin type-A receptor 2; in test [1]; at Ephrin type-B receptor 4; in test [2]; in test [3]) was 50 to 1000 nM throughout.

As to `COc1cc2c(Nc3ccc(Cl)c(Cl)c3F)ncnc2cc1OC[C@@H]1CN2CCC[C@H]2CO1`, the IC50 at Ephrin type-A receptor 2 is below 50 nM; in test [1], 50 to 1000 nM; at Ephrin type-B receptor 4 it was below 50 nM; in test [2], below 50 nM; in test [3], 50 to 1000 nM.

Regarding `COc1cc2c(Nc3ccc(Br)c(Cl)c3F)ncnc2cc1OC[C@@H]1CN2CCC[C@H]2CO1`, the half-inhibitory concentration (IC50) is below 50 nM at Ephrin type-A receptor 2; below 50 nM in test [1]; below 50 nM at Ephrin type-B receptor 4; below 50 nM in test [2]; 50 to 1000 nM in test [3].

Turning to `COc1cc2c(Nc3cc(Cl)c(Br)cc3F)ncnc2cc1OC[C@@H]1CN2CCC[C@H]2CO1`, the IC50 on Ephrin type-A receptor 2 was below 50 nM; in test [1], 50 to 1000 nM; on Ephrin type-B receptor 4, below 50 nM; in test [2] it was below 50 nM; in test [3], 50 to 1000 nM.

For `COc1cc2c(Nc3ccc(Cl)c(Cl)c3F)ncnc2cc1OC[C@H]1CN2CCOC[C@H]2CO1`, the IC50 at Ephrin type-A receptor 2 is 50 to 1000 nM; in test [1], 50 to 1000 nM; on Ephrin type-B receptor 4, below 50 nM; in test [2], below 50 nM; in test [3], 50 to 1000 nM.

In the case of `COc1cc2c(Nc3cc(Cl)c(Cl)cc3F)ncnc2cc1OC[C@H]1CN2CCOC[C@H]2CO1`, the IC50 (at Ephrin type-A receptor 2; in test [1]; at Ephrin type-B receptor 4; in test [2]; in test [3]) was 50 to 1000 nM throughout.

On to `COc1cc2c(Nc3ccc(Cl)c(Cl)c3)ncnc2cc1OC[C@@H]1CN2CCC[C@@H]2CO1`, for which the IC50 at Ephrin type-A receptor 2 was below 50 nM; in test [1], 50 to 1000 nM; at Ephrin type-B receptor 4, below 50 nM; in test [2], below 50 nM; in test [3], below 50 nM.

Regarding `COc1cc2c(Nc3ccc(Br)c(Cl)c3F)ncnc2cc1OC[C@@H]1CN2CCC[C@H]2C(=O)N1`, the IC50 at Ephrin type-A receptor 2 is 50 to 1000 nM; in test [1], 50 to 1000 nM; on Ephrin type-B receptor 4 it was below 50 nM; in test [2], below 50 nM; in test [3] it was 1000 to 20000 nM.

Source of the values: ChEMBL document CHEMBL3882729, “Receptor-type kinase modulators and methods of use” (2009).
